By IC50 is commonly meant the concentration that inhibits the measured activity by half.

The results in this text go back to ChEMBL document CHEMBL3745651, “Flat SAR of P3-methylsulphonamide based small molecule legumain inhibitors” (Bioorg Med Chem Lett, 2016).

Structures are written as SMILES. Values after ≈ are worked out from the molar mass of the structure shown.

One data set has as its target T1, Legumain (Homo sapiens, UniProt Q99538).
T1 sequence (Q99538 whole entry): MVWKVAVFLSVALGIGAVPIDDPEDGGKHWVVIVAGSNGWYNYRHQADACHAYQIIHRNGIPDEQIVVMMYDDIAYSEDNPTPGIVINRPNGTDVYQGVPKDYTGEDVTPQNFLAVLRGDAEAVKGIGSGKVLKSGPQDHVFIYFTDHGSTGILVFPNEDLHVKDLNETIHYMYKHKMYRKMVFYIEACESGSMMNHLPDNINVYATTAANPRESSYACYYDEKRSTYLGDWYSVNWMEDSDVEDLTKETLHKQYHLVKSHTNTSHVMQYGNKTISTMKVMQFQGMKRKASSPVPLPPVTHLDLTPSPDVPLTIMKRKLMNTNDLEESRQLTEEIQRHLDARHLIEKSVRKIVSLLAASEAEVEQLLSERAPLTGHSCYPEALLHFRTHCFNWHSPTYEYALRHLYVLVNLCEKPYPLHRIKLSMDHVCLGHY
As to the kind of experiment: Inhibition of recombinant human legumain using Z-Ala-Ala-Asn-MCA as substrate preincubated with protein followed by substrate addition measured every 2 mins for 60 mins by microplate reader analysis.

Data set [1] can be described thus: Kinetic solubility of compound in pH 7.4 PBS buffer after 90 mins by plate reader analysis. Type of data set: physicochemical. The note with it: read-out: Kinetic_solubility.
Data set [2] in a line: Intrinsic clearance in mouse liver microsomes at 1 uM incubated for 50 mins by LC-MS/MS method in presence of NADPH. In kind it is ADME. Conditions: read-out: CLH. (Microsomes from liver hold many membrane-bound enzymes, among them those of drug oxidation.)
Data set [3] is described as follows: Intrinsic clearance in rat liver microsomes at 1 uM incubated for 50 mins by LC-MS/MS method in presence of NADPH. Type of data set: ADME. The note with it: read-out: CLH.
A short description of data set [4]: Intrinsic clearance in rat hepatocytes assessed per 10^6 cells at 1 uM incubated at 37 degC for 50 mins by LC-MS/MS method […]. Type of data set: ADME, cell-based, Hepatocyte. The note with it: read-out: CLH.

In the case of `C[C@H](C(=O)N[C@H](C#N)CC(N)=O)N(Cc1ccc(-c2cc(F)cc(F)c2)cc1)S(C)(=O)=O`, on Legumain, the half-inhibitory concentration (IC50) is 9250 nM. In the case of `C[C@@H](C(=O)N[C@H](C#N)CC(N)=O)N(Cc1ccc(-c2ccccc2F)cc1)S(C)(=O)=O`, at Legumain, the concentration for half-maximal inhibition (IC50) came out at 356 nM. Same read-out and setting: the result for `CC(C(=O)N[C@H](C#N)CC(N)=O)N(Cc1ccc(-c2cccc(Cl)c2)cc1)S(C)(=O)=O` (mixture of isomers) reads 425 nM. In the case of `CCS(=O)(=O)N(Cc1ccc(-c2cccc(F)c2F)cc1)[C@@H](C)C(=O)N[C@H](C#N)CC(N)=O`, the IC50 at Legumain was 1090 nM. On the same count and under the same terms, the result for `CC[C@@H](C(=O)N[C@H](C#N)CC(N)=O)N(Cc1ccc(-c2cccc(F)c2F)cc1)S(C)(=O)=O` reads 5850 nM; that for `C[C@@H](C(=O)N[C@H](C#N)CC(N)=O)N(Cc1ccc(-c2cc(F)cc(F)c2)cc1)S(C)(=O)=O`, 1360 nM. Turning to `C[C@@H](C(=O)N[C@H](C#N)CC(N)=O)N(Cc1ccc(-c2cccc(F)c2)cc1)S(C)(=O)=O`, in data set [1], the solubility kinetic at 1.5 h was determined as 185 µM (≈ 82.6 µg/mL). Further, the values for the microsomal CLint at 1 µM in data set [2] and in data set [3] were 4 µL/min/mg and 19 µL/min/mg, respectively. Besides, the IC50 on Legumain was 128 nM. The hepatocyte CLint at 1 µM in data set [4] is 45 µL/min/1e6 cells. Turning to `C[C@H](C(=O)N[C@H](C#N)CC(N)=O)N(Cc1ccc(-c2ccc(F)c(F)c2)cc1)S(C)(=O)=O`, at Legumain, the IC50 stood at 6300 nM. On the same count and under the same terms, the value for `CC(C)Oc1cccc(-c2ccc(CN([C@@H](C)C(=O)N[C@H](C#N)CC(N)=O)S(C)(=O)=O)cc2)c1` was 882 nM. On the same count and under the same terms, the value for `CCOc1cccc(-c2ccc(CN([C@H](C)C(=O)N[C@H](C#N)CC(N)=O)S(C)(=O)=O)cc2)c1` was more than 10000 nM; that for `CC(C)CS(=O)(=O)N(Cc1ccc(-c2cccc(F)c2)cc1)[C@@H](C)C(=O)N[C@H](C#N)CC(N)=O` was 2270 nM. On to `C[C@H](C(=O)N[C@H](C#N)CC(N)=O)N(Cc1ccc(-c2cccc(F)c2)cc1)S(C)(=O)=O`, for which the IC50 at Legumain stood at 2260 nM. On the same count and under the same terms, the value for `CCC[C@@H](C(=O)N[C@H](C#N)CC(N)=O)N(Cc1ccc(-c2cccc(F)c2)cc1)S(C)(=O)=O` was 4380 nM. Turning to `C[C@@H](C(=O)N[C@H](C#N)CC(N)=O)N(Cc1ccc(-c2ccc(F)c(F)c2)cc1)S(C)(=O)=O`, the IC50 at Legumain turned out to be 252 nM. Consider `COc1cccc(-c2ccc(CN([C@@H](C)C(=O)N[C@H](C#N)CC(N)=O)S(C)(=O)=O)cc2)c1`, for which, in data set [1], the solubility kinetic at 1.5 h was determined as 193 µM (≈ 88.5 µg/mL). For the same compound, the results for the microsomal CLint at 1 µM in data set [2] and in data set [3] were 24 µL/min/mg and 38 µL/min/mg, respectively. Moreover, the concentration for half-maximal inhibition (IC50) at Legumain was 378 nM. Moreover, in data set [4], the hepatocyte CLint at 1 µM is 69 µL/min/1e6 cells. Take `CC(C)Oc1cccc(-c2ccc(CN([C@H](C)C(=O)N[C@H](C#N)CC(N)=O)S(C)(=O)=O)cc2)c1`: the IC50 at Legumain was 5050 nM. Still for that read-out and setting: the result for `CCC[C@@H](C(=O)N[C@H](C#N)CC(N)=O)N(Cc1ccc(-c2cccc(F)c2F)cc1)S(C)(=O)=O` reads 7750 nM. In the case of `C[C@@H](C(=O)N[C@H](C#N)CC(N)=O)N(Cc1ccc(-c2cccc(F)c2F)cc1)S(C)(=O)=O`, the solubility kinetic at 1.5 h in data set [1] worked out at 181 µM (≈ 84.1 µg/mL). Besides, the figures for the microsomal CLint at 1 µM in data set [2] and in data set [3] were 3 µL/min/mg and 17 µL/min/mg, respectively. Moreover, the concentration for half-maximal inhibition (IC50) on Legumain is 323 nM. The hepatocyte CLint at 1 µM in data set [4] was 38 µL/min/1e6 cells. For the compound `COc1cccc(-c2ccc(CN([C@H](C)C(=O)N[C@H](C#N)CC(N)=O)S(C)(=O)=O)cc2)c1`, the IC50 at Legumain was 5850 nM. As for `C[C@H](C(=O)N[C@H](C#N)CC(N)=O)N(Cc1ccc(-c2cccc(F)c2F)cc1)S(C)(=O)=O`, the IC50 at Legumain was determined as 1460 nM. With `C[C@H](C(=O)N[C@H](C#N)CC(N)=O)N(Cc1ccc(-c2ccccc2F)cc1)S(C)(=O)=O`, the IC50 at Legumain was more than 10000 nM. Same read-out and setting: the value for `CCOc1cccc(-c2ccc(CN([C@@H](C)C(=O)N[C@H](C#N)CC(N)=O)S(C)(=O)=O)cc2)c1` was 586 nM. Still for that read-out and setting: the value for `CCCS(=O)(=O)N(Cc1ccc(-c2cccc(F)c2F)cc1)[C@@H](C)C(=O)N[C@H](C#N)CC(N)=O` was 6740 nM.
